Reference: ChEMBL document CHEMBL1201862, “PubChem BioAssay data set” (2004)
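1) Cells in 96-well plates. 2) Compound, 48 h, 5 concentrations. 3) Linear interpolation between surrounding doses. 4) Unreached endpoint = highest concentration. GI50 is the concentration that inhibits growth by half.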 Activity calls are given as the source filed them. Cut-off read from the data, not from the text of the source: active = GI50 up to about 1.1 µM and inactive = higher.

Columns and labels:
Assay in all cases: NCI tumour cell line growth inhibition, 48 h
[1] = system: EKVX
[2] = system: HCC 2998
[3] = system: HCT-116
[4] = system: HCT-15
[5] = system: HOP-92
[6] = system: IGROV-1
[7] = system: KM12
[8] = system: MCF7
[9] = system: MDA-MB-435
[10] = system: MOLT-4
[11] = system: NCI-H226
[12] = system: NCI-H23
[13] = system: NCI-H522
[14] = system: NCI/ADR-RES
[15] = system: SK-OV-3
[16] = system: SNB-75
[17] = system: SR
[18] = system: UACC-257
[19] = system: UACC-62
[20] = system: OVCAR-3

Row | SMILES | GI50 [1] | GI50 [2] | GI50 [3] | GI50 [4] [µM] | GI50 [5] | GI50 [6] | GI50 [7] | GI50 [8] | GI50 [9] | GI50 [10] | GI50 [11] | GI50 [12] | GI50 [13] | GI50 [14] | GI50 [15] | GI50 [16] | GI50 [17] | GI50 [18] | GI50 [19] | GI50 [20]
1 | C=C(C)[C@@]1(O)CCCC[C@@H]1CC(Sc1ccccc1)Sc1ccccc1 | 13.4 µM (inactive) | 16.5 µM (inactive) | 12.5 µM (inactive) | 15 | 4.3 µM (inactive) | 16.4 µM (inactive) | 14.2 µM (inactive) | 24.7 µM (inactive) | 16.2 µM (inactive) | 9.08 µM (inactive) | 16.3 µM (inactive) | 14.2 µM (inactive) | 11.7 µM (inactive) | 16.3 µM (inactive) | 19.6 µM (inactive) | 16 µM (inactive) | 14.1 µM (inactive) | 20.2 µM (inactive) | 41.9 µM (inactive) | 
2 | O=[N+]([O-])c1ccc(/C=C(/c2ccc([N+](=O)[O-])o2)S(=O)(=O)c2ccccc2)cc1 |  |  | 30.9 µM (inactive) | 26.9 | > 100 µM (inactive) | 75.5 µM (inactive) | 41.1 µM (inactive) | 40.8 µM (inactive) | 60.8 µM (inactive) | 16.8 µM (inactive) | 13.4 µM (inactive) | 59 µM (inactive) | 39.4 µM (inactive) | 47.5 µM (inactive) | > 100 µM (inactive) | > 100 µM (inactive) | 16.4 µM (inactive) | 29.4 µM (inactive) | 22.2 µM (inactive) | 97.9 µM (inactive)
3 | COc1ccc(-c2c(N)n(-c3nc4ccccc4s3)c(=O)c3cc([N+](=O)[O-])ccc23)cc1 | 14 µM (inactive) |  | 20.1 µM (inactive) | 41.8 | 16.4 µM (inactive) |  | 18.6 µM (inactive) | 44.8 µM (inactive) | 19 µM (inactive) | 3.18 µM (inactive) | 37.3 µM (inactive) | 13.8 µM (inactive) | 10.7 µM (inactive) | 17 µM (inactive) | 15.3 µM (inactive) | 8.43 µM (inactive) | 8.39 µM (inactive) | 67.8 µM (inactive) | > 100 µM (inactive) | 17 µM (inactive)
4 | CNC(=O)OCc1nc(N=[N+]=[N-])n(C)c1COC(=O)NC | > 100 µM (inactive) | 38.4 µM (inactive) | 46.2 µM (inactive) | 60.4 | 25.3 µM (inactive) | > 100 µM (inactive) | 69.8 µM (inactive) | 38 µM (inactive) | 37.2 µM (inactive) | 26 µM (inactive) | > 100 µM (inactive) | 54.2 µM (inactive) | 19.5 µM (inactive) | 69.8 µM (inactive) |  | 49 µM (inactive) | 21.3 µM (inactive) | > 100 µM (inactive) |  | 39.2 µM (inactive)
5 | O=C1CSC(c2cccc(Oc3ccccc3)c2)N1c1cc(Cl)ccc1Cl (stereo unspecified) | 26.1 µM (inactive) | 14 µM (inactive) | 17.3 µM (inactive) | 23.8 | 16.4 µM (inactive) |  | 26.4 µM (inactive) | 6.3 µM (inactive) | 15.4 µM (inactive) | 22.6 µM (inactive) | 23.4 µM (inactive) | 31.9 µM (inactive) | 20.9 µM (inactive) | 29.2 µM (inactive) | 39.8 µM (inactive) | 26.4 µM (inactive) | 14.9 µM (inactive) | 22.7 µM (inactive) | 16 µM (inactive) | 22.1 µM (inactive)
6 | Nc1ccc(-c2nc3ccc(F)cc3s2)cc1Cl | > 61.9 µM (inactive) | 0.0869 µM (active) |  | > 100 | 24.9 µM (inactive) | < 0.01 µM (active) | > 100 µM (inactive) | < 0.01 µM (active) | > 100 µM (inactive) | > 20.4 µM (inactive) | 14.1 µM (inactive) | > 82 µM (inactive) | > 70.5 µM (inactive) | > 100 µM (inactive) | > 100 µM (inactive) | 37 µM (inactive) | > 100 µM (inactive) | > 100 µM (inactive) | > 69.8 µM (inactive) | 0.126 µM (active)
